Assay results from ChEMBL document CHEMBL5321253, “Discovery of novel pyridinones as MGAT2 inhibitors for the treatment of metabolic disorders” (Bioorg Med Chem Lett, 2023).

Tests used:
in vitro [1] = conditions: mouse, liver microsomes
in vitro [2] = conditions: human, liver microsomes

Cc1ccc(-c2cc(-c3ccc(OCCCC(F)(F)F)cc3)[nH]c(=O)c2NC(=O)c2ccno2)cc1
remaining at 10 min (in vitro [1]): 27% | remaining at 10 min (in vitro [2]): 64%
